From patent publication US20110098219A1, “System for Curing Hepatic Cancer with Leptin” (KAOHSIUNG MEDICAL UNIVERSITY, priority 2009, published 2011)

Tests used:
Assay type in all cases: cell-based
[1] = test system: epithelial cell line of normal liver (THLE-3); assay: XTT assay, survival of normal liver epithelial cell line; details: THLE-3, FIG. 17A
Procedure: (§1) Please refer to FIG. 17A to FIG. 18B, which are views showing epithelial cell line of normal liver treated with MPA+leptin for 24 hours and 48 hours respectively; and views showing STAT3- and MAPK-related signal paths after treating cell line of normal liver with MPA+leptin. As shown in the figures, after epithelial cell line of normal liver (THLE-3) is applied with MPA+leptin for […], MPA+leptin's effect on cell growth (i.e. survival rate) is analyzed through XTT assay. […] Besides, in FIG. 18A and FIG. 18B, protein expressions for STAT- and MAPK-related signal paths are analyzed.

[2] = test system: liver cancer cells (hepatocellular carcinoma cell line); assay: XTT assay, growth of liver cancer cells; details: high-dose leptin (100 ng), 24 hours
Procedure: Please refer to FIG. 2, which is a view showing leptin's effect on growth of liver cancer cells. As shown in the figure, for acquiring effect of leptin on liver cancer cells, the preferred embodiment uses leptin having different doses, where the high-dose leptin has 100 nano-grams (ng) and the low-dose leptin has 10 ng. The 10 ng leptin is conformed to the physiological concentration of normal human body for observing effect of leptin on the cells. In the other hand, the 100 ng leptin is used to show whether a higher levels of leptin obtains a higher effect on the cells.
Please refer to FIG. 3, which is a view showing MPA's effect on growth of liver cancer cells. As shown in the figure, the preferred embodiment applies MPA having different doses to liver cancer cells.
Please refer to FIG. 4, which is a view showing effect of MPA+leptin on growth of liver cancer cells. As shown in the figure, the preferred embodiment applies MPA combined with leptin to liver cancer cells, where MPA has different doses and leptin has different doses.
Please refer to FIG. 9, which is a view showing reduced effect of MPA+leptin by suppressing leptin receptor expression. As shown in the figure, a 20 nano-moles (nM) of leptin receptor, siRNA, is transferred to cells to be cultured a day and is cultured in a serum-free medium for the next day. Then, the cells are processed with MPA+leptin for 24 hours to be analyzed through XTT assay. […] Thus, it is confirmed that leptin enhances MPA's suppression on the cells through the leptin receptor.
Please refer to FIG. 10A and FIG. 10B, which are views showing apoptosis of cells on increasing expression of leptin receptor and expression of progesterone receptor respectively. As shown in the figures, the preferred embodiment makes ob-Rb plasmid transfected to cells to be cultured a day and is cultured in a serum-free medium for the next day. Then, the cells are processed with MPA+leptin for 24 hours to be analyzed through XTT assay. […] Besides, the long-form Ob-R enhances expression of the progesterone receptor. Again, the preferred embodiment makes PgR plasmid transfected to cells to be cultured a day and is cultured in a serum-free medium for the next day. Then, the cells are processed with MPA+leptin for 24 hours to be analyzed through XTT assay.
Please refer to FIG. 15A to FIG. 16B, which are views showing cells containing very much leptin within; suppressed growth of the cells by using MPA; and STAT3- and MAPK-signal paths of the cells after MPA is applied. As shown in the figures, while leptin is added from outside in state 13 to suppress liver cancer cells with MPA+leptin, the preferred embodiment here transfers expression plasmid of leptin (pcLeptin) to liver cancer cells to be cultured for a day; and a serum-free medium is used for the next day. Then, after the cells are processed with 10^−4M MPA for 24 hours, cell growth is analyzed through XTT assay. In FIG. 15A, leptin gene is transferred to cells for a short time for obtaining very much leptin within the cells by themselves. After applying MPA to the cells for 24 hours, it is confirmed that MPA's suppression on liver cancer cells is enhanced by a lot of leptin self-generated within the cells. Moreover, after obtaining a lot of leptin, medium is collected for immunoprecipitation and further western blotting. […] Then, after the cells are processed with 10^−4 M MPA for 24 hours, JAK/STAT-related proteins are analyzed through western blotting.

[3] = test system: STAT- and MAPK-related signal paths; assay: Protein expression of STAT- and MAPK-related signal paths in normal liver cell line
Procedure: as §1

JAK/STAT path = assay: Western blotting of JAK/STAT path proteins in liver cancer cells; details: 10^-6 M U0126 for 4 hours, then MPA+leptin for 3 hours
Procedure: Please refer to FIG. 11, which is a view showing expression of JAK/STAT path after applied with a drug. As shown in the figure, the preferred embodiment analyzes related proteins of liver cancer cells through western blotting after applied with MPA+leptin for 24 hours.
(§2) Please refer to FIG. 13A and FIG. 13A, which are views showing expressions of proteins of JAK/STAT path and proteins of MAPK path after applied with a drug for a short time. As shown in the figures, the preferred embodiment processes liver cancer cells with high-dose leptin, high-dose MPA and high-dose leptin combined with high-dose MPA for 30 minutes. Then, related JAK/STAT proteins are collected for analyzing their expressions through western blotting.
Please refer to FIG. 14, which is a view showing reduced p-STAT3 degradation by suppressing the ERK1/2 activation and the PIAS3 expression. […] The preferred embodiment uses a 10^−6M p-ERK1/2 inhibitor (U0126) for 4 hours before a drug is applied; then, liver cancer cells are applied with the drug of MPA+leptin for 3 hours to collect cellular proteins for analyzing expression of related proteins through western blotting. […] As a conclusion, MPA activates ERK1/2 to indirectly induce PIAS3 expression for suppressing p-STAT3 (Tyr705) for cell apoptosis, where leptin enhances activation of ERK1/2 with MPA for increasing cell apoptosis.
(§3) Please refer to FIG. 15A to FIG. 16B, which are views showing cells containing very much leptin within; suppressed growth of the cells by using MPA; and STAT3- and MAPK-signal paths of the cells after MPA is applied. […] Then, after the cells are processed with 10^−4M MPA for 24 hours, cell growth is analyzed through XTT assay. […] Then, after the cells are processed with 10^−4 M MPA for 24 hours, JAK/STAT-related proteins are analyzed through western blotting.

MAPK path = assay: Western blotting of MAPK path proteins in liver cancer cells; details: 10^-6 M U0126 for 4 hours, then MPA+leptin for 3 hours
Excerpt: Please refer to FIG. 12, which is a view showing expression of MAPK path after applied with a drug. As shown in the figure, after proteins for the JAK2/STAT3 path are suppressed, the preferred embodiment analyzes expression of the proteins through western blotting.
as §2
Please refer to FIG. 14, which is a view showing reduced p-STAT3 degradation by suppressing the ERK1/2 activation and the PIAS3 expression. […]
as §3

Molecule | effect on survival rate of, and poisoning of, normal liver epithelial cells [1] | effect on growth of liver cancer cells [2] | effect on STAT- and MAPK-related signal proteins [3] | expression of p-STAT3 (Tyr705) (JAK/STAT path) | PIAS3 (MAPK path) | phosphorylation of ERK1/2 (MAPK path)
leptin: hormone of single-chain protein; adipokine generated by adipocyte | no obvious effect | no obvious effect | no obvious effect | – | – | –
N#CC(=C(/N)Sc1ccccc1N)/C(C#N)=C(\N)Sc1ccccc1N [U0126] | – | – | – | suppressed | not induced | suppressed
